Reference: patent US20120053318A1, “METHOD OF RADIOLABELING” (CENTRE FOR PROBE DEVELOPMENT AND COMMERCIALIZATION, priority 2010, published 2012)

How the values were obtained:
[1] = target: urokinase plasminogen activator receptor (uPAR) (Homo sapiens, UniProt Q03405); experiment: binding affinity of Re complexes of the peptides for uPAR; conditions: isostructural to the Tc analogues
[2] = oils selected based on biocompatibility; cited from earlier work

Sequence of urokinase plasminogen activator receptor (uPAR) (Q03405 23-305): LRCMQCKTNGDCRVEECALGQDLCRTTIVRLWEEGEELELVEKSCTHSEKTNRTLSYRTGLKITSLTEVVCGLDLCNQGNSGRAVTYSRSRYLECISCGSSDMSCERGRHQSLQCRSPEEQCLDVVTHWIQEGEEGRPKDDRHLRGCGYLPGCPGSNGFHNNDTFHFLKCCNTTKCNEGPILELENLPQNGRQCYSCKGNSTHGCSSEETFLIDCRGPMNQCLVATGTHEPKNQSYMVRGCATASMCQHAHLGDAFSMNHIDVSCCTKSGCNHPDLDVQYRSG

| Ki [1] | Compound | LD50 [2] |
| --- | --- | --- |
| 1370 ± 830 pM | SAACII-S-G-S-G-D-Cha-F-s-r-Y-L-W-S [L1] | – |
| – | CC(C)CC(C)(C)C [isooctane] | greater than 2000 mg/kg |
| 390 ± 100 pM | D-Cha-F-s-r-Y-L-W-S-SAACII [L2] | – |
